According to US20120029054A1, “RNA Interference Mediated Inhibition of GATA Binding Protein 3 (GATA3) Gene Expression Using Short Intefering Nucleic Acid (siNA)” (Merck Sharp & Dohme Corp., priority 2009, published 2012):
[invAb] = inverted abasic unit; m = 2'-O-methyl; r = 2'-OH (RNA); f = 2'-fluoro

Legend:
GATA3 mRNA [1] = experiment: GATA3 mRNA knock-down (Taqman qRT-PCR) after RNAiMax transfection of human MCF7 cells; screen and IC50 dose response; format: cell-based; conditions: 10 nM siNA, MCF7 cells, 24 hrs
Procedure: MCF7 (human; ATCC cat# HTB-22): Cells were cultured at 37° C. in the presence of 5% CO2 and grown in Eagle's Minimum Essential medium with supplemented with fetal bovine serum at a final concentration of 10% and 100 μg/mL of streptomycin and 100 U/mL penicillin.
(§1) Cells were plated in all wells of a tissue-culture treated, 96-well plate at a final count of 5000 cells/well in 100 μL of the appropriate culture media. The cells were cultured for 24 hours after plating at 37° C. in the presence of 5% CO2.
(§2) After 24 hours, complexes containing siNA and RNAiMax were created as follows: A solution of RNAiMax diluted 33-fold in OPTI-MEM was prepared. In parallel, solutions of the siNAs for testing were prepared to a final concentration of 120 nM in OPTI-MEM. After incubation of RNAiMax/OPTI-MEM solution at room temperature for 5 min, an equal volume of the siNA solution and the RNAiMax solution were added together for each of the siNAs.
(§3) This solution was incubated at room temperature for 20 minutes. After incubation, 20 uL of the solution was added to each of the relevant wells. The final concentration of siNA in each well was 10 nM and the final volume of RNAiMax in each well was 0.3 ul.
(§4) The time of incubation with the RNAiMax-siNA complexes was 24 hours and there was no change in media between transfection and harvesting, unless otherwise indicated.
(§5) RNA was extracted from a 96-well plate using the TaqMan® Gene Expression Cells-to-CT™ Kit (Cat#4399002) with a modified protocol. Briefly, a 60 uL (1 plate) or 110 uL (2 plates) of the Lysis Solution with DNase I was dispensed into each well of the Lysis Buffer Plate (twin.tec full skirt plate). The lysis buffer and stop plates were stored at 4° C. until the cells were washed.
(§6) The plate was spun at 1100 rpm for 5 minutes. The culture medium was aspirated and discarded from the wells of the culture plate. The lysis was performed automatically using a BioMek FX instrument and method. After the Biomek method was completed, the lysis plate was incubated for 2 min. at room temperature. The lysis plate can be stored for 2 hours at 4° C., or at −20° C. or −80° C. for two months.
(§7) Each well of the reverse transcription plate required 10 uL of 2× reverse transcriptase Buffer, 1 uL of 20× reverse transcription enzyme and 2 uL of nuclease-free water. The reverse transcription master mix was prepared by mixing 2× reverse transcription buffer, 20× reverse transcription enzyme mix, and nuclease-free water. 13 uL of the reverse transcription master mix was dispensed into each well of the reverse transcription plate (semi-skirted). A separate reverse transcription plate was prepared for each cell plate. The plate was loaded onto a Biomek NX or Biomek FX Dual-96 and the Biomek method was run. The program is programmed to automatically added 7 uL of lysate from the cell lysis procedure described above into each well of the reverse transcription plate. The plate is sealed and spun on a centrifuge (1000 rpm for 30 seconds) to settle the contents to the bottom of the reverse transcription plate. The plate is placed in a thermocycler at 37° C. for 60 min, 95° C. for 5 min, and 4° C. until the plate is removed from the thermocycler. Upon removal, if not used immediately, the plate was frozen at −20° C.
(§8) A series of probes and primers were used to detect the various mRNA transcripts of the genes of β-Actin (human cell line only), and of GATA3 and GAPDH in mouse and human cell lines. All Taqman probes and primers for the experiments here-in described were supplied as pre-validated sets by Applied Biosystems, Inc. (see Table 2).
(§9) The assays were performed on an ABI 7900 instrument, according to the manufacturer's instructions. A TaqMan Gene Expression Master Mix (provided in the Cells-to-CT™, Applied Biosystems, Cat #4399002) was used. The PCR reactions were carried out at 50° C. for 2 min, 95° C. for 20 min followed by 40 cycles at 95° C. for 15 secs and 60° C. for 1 min. […]

GATA3 mRNA [2] = experiment: GATA3 mRNA knock-down (Taqman qRT-PCR) after RNAiMax transfection of mouse RAG cells; format: cell-based; conditions: 10 nM siNA, 24 hrs, average of 2 experiments
Procedure: RAG (murine; ATCC cat# CCL-142): Cells were cultured at 37° C. in the presence of 5% CO2 and grown in Eagle's Minimum Essential medium with supplemented with 10% of fetal bovine serum, 100 μg/mL of streptomycin, and 100 U/mL penicillin.
as §1, §2, §3, §4, §5, §6, §7, §8, §9

In the case of “30278-DC: GATA3 siNA duplex, mouse site 720: sense B GGAAGAGGuGGAcGuAcuu TTB (SEQ 109), antisense AAGuAcGuCCAccucuuccUU (SEQ 110) (sense GGAAGAGGUGGACGUACUUTT; antisense AAGUACGUCCACCUCUUCCUU; sense: DNA at AGT, 2'-fluoro at CU, [invAb] at 5' end, 3' end, backbone not given here; antisense: chemistry not given here)”, the “% KD Human” value (GATA3 mRNA [1]; average of 3 experiments) is reported as −18 ± 5% and the “% KD Mouse” value (GATA3 mRNA [2]) is reported as 60 ± 2%.
With “30255-DC: GATA3 siNA duplex, site 1085: sense B ccGGcAGGAcGAGAAAGAG TTB (SEQ 63), antisense CUCuuucucGuccuGccGGUU (SEQ 64) (sense CCGGCAGGACGAGAAAGAGTT; antisense CUCUUUCUCGUCCUGCCGGUU; sense: DNA at AGT, 2'-fluoro at C, [invAb] at 5' end, 3' end, backbone not given here; antisense: sugars from the 5' end rrrffffffmffffmffmmmm, backbone not given here)” the “% KD Human” value (GATA3 mRNA [1]; average of 3 experiments) was 26 ± 11% and the “% KD Mouse” value (GATA3 mRNA [2]) was 40 ± 3%.
In the case of “30256-DC: GATA3 siNA duplex, site 719: sense B cGGucAAGGcAAccAcGuc TTB (SEQ 65), antisense GACGuGGuuGccuuGAccGUU (SEQ 66) (sense CGGUCAAGGCAACCACGUCTT; antisense GACGUGGUUGCCUUGACCGUU; chemistry not fully specified)”, the “% KD Human” value (GATA3 mRNA [1]; average of 3 experiments) is reported as −19 ± 5% and the “% KD Mouse” value (GATA3 mRNA [2]) is reported as 1 ± 6%.
“30262-DC: GATA3 siNA duplex, site 1818: sense B ccGAuGcAcccGccAuccA TTB (SEQ 77), antisense UGGAuGGcGGGuGcAucGGUU (SEQ 78) (sense CCGAUGCACCCGCCAUCCATT; antisense UGGAUGGCGGGUGCAUCGGUU; chemistry not fully specified)” was tested, and the “% KD Human” value (GATA3 mRNA [1]; average of 3 experiments) was 10 ± 11% and the “% KD Mouse” value (GATA3 mRNA [2]) was 1 ± 7%.
“30251-DC: GATA3 siNA duplex, site 735: sense B GucccGcccuAcuAcGGAA TTB (SEQ 55), antisense UUCcGuAGuAGGGcGGGAcUU (SEQ 56) (sense GUCCCGCCCUACUACGGAATT; antisense UUCCGUAGUAGGGCGGGACUU; sense: DNA at AGT, 2'-fluoro at CU, [invAb] at 5' end, 3' end, backbone not given here; antisense: sugars from the 5' end rrrfmfmmfmmmmfmmmmfmm, backbone not given here)” was tested, and the “% KD Human” value (GATA3 mRNA [1]; average of 3 experiments) was −127 ± 32% and the “% KD Mouse” value (GATA3 mRNA [2]) was −30 ± 18%.
“30275-DC: GATA3 siNA duplex, mouse site 794: sense B GGGcuAcGGuGcAGAGGuA TTB (SEQ 103), antisense UACcucuGcAccGuAGcccUU (SEQ 104) (sense GGGCUACGGUGCAGAGGUATT; antisense UACCUCUGCACCGUAGCCCUU; sense: DNA at AGT, 2'-fluoro at CU, [invAb] at 5' end, 3' end, backbone not given here; antisense: sugars from the 5' end rrrffffmfmffmfmmfffmm, backbone not given here)” was tested, and the “% KD Human” value (GATA3 mRNA [1]; average of 3 experiments) was 42 ± 8% and the “% KD Mouse” value (GATA3 mRNA [2]) was 49 ± 7%.
In the case of “30270-DC: GATA3 siNA duplex, mouse site 1960: sense B ccAAGuGuGcGAAGAGuuc TTB (SEQ 93), antisense GAAcucuucGcAcAcuuGGUU (SEQ 94, row printed as 30269-DC) (sense CCAAGUGUGCGAAGAGUUCTT; antisense GAACUCUUCGCACACUUGGUU; chemistry not fully specified)”, the “% KD Human” value (GATA3 mRNA [1]; average of 3 experiments) is reported as −25 ± 24% and the “% KD Mouse” value (GATA3 mRNA [2]) is reported as 69 ± 4%.
“30248-DC: GATA3 siNA duplex, site 643: sense B cGGGccucAGccAcuccuA TTB (SEQ 49), antisense UAGGAGuGGcuGAGGcccGUU (SEQ 50) (sense CGGGCCUCAGCCACUCCUATT; antisense UAGGAGUGGCUGAGGCCCGUU; chemistry not fully specified)” was tested, and the “% KD Human” value (GATA3 mRNA [1]; average of 3 experiments) was 18 ± 4% and the “% KD Mouse” value (GATA3 mRNA [2]) was 1 ± 5%.
“30274-DC: GATA3 siNA duplex, mouse site 704: sense B cucAGuAuccGcuGAcGGA TTB (SEQ 101), antisense UCCGucAGcGGAuAcuGAGUU (SEQ 102) (sense CUCAGUAUCCGCUGACGGATT; antisense UCCGUCAGCGGAUACUGAGUU; sense: DNA at AGT, 2'-fluoro at CU, [invAb] at 5' end, 3' end, backbone not given here; antisense: sugars from the 5' end rrrmffmmfmmmfmffmmmmm, backbone not given here)” was tested, and the “% KD Human” value (GATA3 mRNA [1]; average of 3 experiments) was 0 ± 13% and the “% KD Mouse” value (GATA3 mRNA [2]) was −2 ± 4%.
In the case of “30286-DC: GATA3 siNA duplex, human/mouse site 1956: sense B GcAGGAGcAGuAucAuGAA TTB (SEQ 125), antisense UUCAuGAuAcuGcuccuGcUU (SEQ 126) (sense GCAGGAGCAGUAUCAUGAATT; antisense UUCAUGAUACUGCUCCUGCUU; sense: DNA at AGT, 2'-fluoro at CU, [invAb] at 5' end, 3' end, backbone not given here; antisense: sugars from the 5' end rrrmfmmfmffmfffffmfmm, backbone not given here)”, the “% KD Human” value (GATA3 mRNA [1]; * Hs00231122_m1 Taqman Assay) is reported as 45 ± 3* %, the “% KD Human” value (GATA3 mRNA [1]; ** Hs00922328_m1 Taqman Assay) is reported as 40 ± 16** % and the “% KD Mouse” value (GATA3 mRNA [2]) is reported as 66 ± 0%.
For “30269-DC: GATA3 siNA duplex, mouse site 1449: sense B cuGcGGAcucuAccAuAAA TTB (SEQ 91), antisense UUUAuGGuAGAGuccGcAGUU (SEQ 92) (sense CUGCGGACUCUACCAUAAATT; antisense UUUAUGGUAGAGUCCGCAGUU; sense: DNA at AGT, 2'-fluoro at CU, [invAb] at 5' end, 3' end, backbone not given here; antisense: sugars from the 5' end rrrmfmmfmmmmfffmfmmmm, backbone not given here)”, the “% KD Human” value (GATA3 mRNA [1]; average of 3 experiments) was −36 ± 9% and the “% KD Mouse” value (GATA3 mRNA [2]) was 83 ± 0%.
In the case of “30264-DC: GATA3 siNA duplex, site 690: sense B GAGGAGGuGGAuGuGcuuu TTB (SEQ 81), antisense AAAGcAcAuccAccuccucUU (SEQ 82) (sense GAGGAGGUGGAUGUGCUUUTT; antisense AAAGCACAUCCACCUCCUCUU; chemistry not fully specified)”, the “% KD Human” value (GATA3 mRNA [1]; average of 3 experiments) is reported as −20 ± 12% and the “% KD Mouse” value (GATA3 mRNA [2]) is reported as −18 ± 0%.
“30265-DC: GATA3 siNA duplex, mouse site 2025: sense B GcccGAAAGcGAcAGAucu TTB (SEQ 83), antisense AGAucuGucGcuuucGGGcUU (SEQ 84) (sense GCCCGAAAGCGACAGAUCUTT; antisense AGAUCUGUCGCUUUCGGGCUU; chemistry not fully specified)” was tested, and the “% KD Human” value (GATA3 mRNA [1]; average of 3 experiments) was −8 ± 13% and the “% KD Mouse” value (GATA3 mRNA [2]) was 58 ± 0%.
In the case of “30257-DC: GATA3 siNA duplex, site 1830: sense B ccAuccAGccuGuccuuuG TTB (SEQ 67), antisense CAAAGGAcAGGcuGGAuGGUU (SEQ 68) (sense CCAUCCAGCCUGUCCUUUGTT; antisense CAAAGGACAGGCUGGAUGGUU; chemistry not fully specified)”, the “% KD Human” value (GATA3 mRNA [1]; average of 3 experiments) is reported as −3 ± 3% and the “% KD Mouse” value (GATA3 mRNA [2]) is reported as −4 ± 5%.
